Data taken from paper PMC5218480 (PLoS ONE, 2017).

Tested on: MV-4-11 cells
Experiment: Gene expression microarray analysis (Affymetrix PrimeView) and GSEA
Type: cell-based, human
Design: RFU PODN (11730768_x_at) / Fold change /veh PODN (11730768_x_at) / RFU LINC00158 (11744669_a_at) / Fold change /veh LINC00158 (11744669_a_at) / RFU DUSP10 (11751237_a_at) / Fold change /veh DUSP10 (11751237_a_at) / RFU ID3 (11757404_x_at) / Fold change /veh ID3 (11757404_x_at) / RFU PLEKHG5 (11737974_s_at) / Fold change /veh PLEKHG5 (11737974_s_at) / RFU LRRC4B (11730491_at) / Fold change /veh LRRC4B (11730491_at) / RFU GIMAP4 (11747438_a_at) / Fold change /veh GIMAP4 (11747438_a_at) / RFU KRT8 (11758183_x_at) / Fold change /veh KRT8 (11758183_x_at) / RFU CNN1 (11734310_a_at) / Fold change /veh CNN1 (11734310_a_at) / RFU VPS37D (11726825_at) / Fold change /veh VPS37D (11726825_at) / RFU C10orf10 (11716522_x_at) / Fold change /veh C10orf10 (11716522_x_at) / RFU KIR2DL2 /// KIR2DL4 /// KIR2DL5A /// KIR2DL5B /// KIR2DS1 /// KIR2DS2 /// KIR2DS3 /// KIR2DS4 /// KIR3DL3 /// KIR3DL3 /// KIR3DS1 (11738374_at) / Fold change /veh KIR2DL2 /// KIR2DL4 /// KIR2DL5A /// KIR2DL5B /// KIR2DS1 /// KIR2DS2 /// KIR2DS3 /// KIR2DS4 /// KIR3DL3 /// KIR3DL3 /// KIR3DS1 (11738374_at) / RFU C1QL1 (11718748_at) / Fold change /veh C1QL1 (11718748_at) / RFU TMPRSS4 (11747572_a_at) / Fold change /veh TMPRSS4 (11747572_a_at) / RFU HAMP (11756126_x_at) / Fold change /veh HAMP (11756126_x_at) / RFU RNFT2 (11725882_a_at) / Fold change /veh RNFT2 (11725882_a_at) / RFU NR4A2 (11747474_a_at) / Fold change /veh NR4A2 (11747474_a_at) / RFU ABCC12 (11746883_a_at) / Fold change /veh ABCC12 (11746883_a_at) / RFU TMEM136 (11760407_x_at) / Fold change /veh TMEM136 (11760407_x_at) / RFU CLDN22 /// WWC2 (11732394_at) / Fold change /veh CLDN22 /// WWC2 (11732394_at) / RFU HLA-DPB1 (11760878_x_at) / Fold change /veh HLA-DPB1 (11760878_x_at) / RFU SPINT1 (11716480_a_at) / Fold change /veh SPINT1 (11716480_a_at) / RFU GAP43 (11754022_s_at) / Fold change /veh GAP43 (11754022_s_at) / RFU A4GNT (11735810_at) / Fold change /veh A4GNT (11735810_at) / RFU PRB3 (11715151_x_at) / Fold change /veh PRB3 (11715151_x_at) / RFU TUBB4B (11761932_at) / Fold change /veh TUBB4B (11761932_at) / RFU CAPN14 (11732068_a_at) / Fold change /veh CAPN14 (11732068_a_at) / RFU TMCC2 (11721928_a_at) / Fold change /veh TMCC2 (11721928_a_at) / RFU IRGQ (11745062_a_at) / Fold change /veh IRGQ (11745062_a_at) / RFU FAM174B (11720279_a_at) / Fold change /veh FAM174B (11720279_a_at) / RFU TMPRSS4 (11748680_a_at) / Fold change /veh TMPRSS4 (11748680_a_at) / RFU FAM212B (11763350_a_at) / Fold change /veh FAM212B (11763350_a_at) / RFU PLEKHG5 (11743358_a_at) / Fold change /veh PLEKHG5 (11743358_a_at) / RFU ZSCAN30 (11745921_a_at) / Fold change /veh ZSCAN30 (11745921_a_at) / RFU CMKLR1 (11741424_a_at) / Fold change /veh CMKLR1 (11741424_a_at) / RFU LOC101060620 /// MAPK8IP1 (11723275_at) / Fold change /veh LOC101060620 /// MAPK8IP1 (11723275_at) / RFU SPTSSB (11747773_x_at) / Fold change /veh SPTSSB (11747773_x_at) / RFU PRSS12 (11739890_at) / Fold change /veh PRSS12 (11739890_at) / RFU BIN1 (11741810_x_at) / Fold change /veh BIN1 (11741810_x_at) / RFU WNT11 (11732464_a_at) / Fold change /veh WNT11 (11732464_a_at) / RFU C10orf10 (11716521_a_at) / Fold change /veh C10orf10 (11716521_a_at) / RFU C5orf56 (11738089_at) / Fold change /veh C5orf56 (11738089_at) / RFU CYB561 (11721691_x_at) / Fold change /veh CYB561 (11721691_x_at) / RFU ANKRD19P (11752326_a_at) / Fold change /veh ANKRD19P (11752326_a_at) / RFU OR2T12 /// OR2T33 /// OR2T8 (11738714_s_at) / Fold change /veh OR2T12 /// OR2T33 /// OR2T8 (11738714_s_at) / RFU VCAN (11748164_a_at) / Fold change /veh VCAN (11748164_a_at) / RFU JSRP1 (11732532_at) / Fold change /veh JSRP1 (11732532_at) / RFU KRTAP10-11 (11738290_x_at) / Fold change /veh KRTAP10-11 (11738290_x_at) / RFU MYO3A (11730013_a_at) / Fold change /veh MYO3A (11730013_a_at) / RFU EBF3 (11725865_a_at) / Fold change /veh EBF3 (11725865_a_at) / RFU CAMK2N1 (11719241_x_at) / Fold change /veh CAMK2N1 (11719241_x_at) / RFU C5orf56 (11738088_a_at) / Fold change /veh C5orf56 (11738088_a_at) / RFU OLFML3 (11715873_a_at) / Fold change /veh OLFML3 (11715873_a_at) / RFU LOC100653217 /// NTM (11731650_a_at) / Fold change /veh LOC100653217 /// NTM (11731650_a_at) / RFU MAPK11 (11762145_a_at) / Fold change /veh MAPK11 (11762145_a_at) / RFU FIZ1 (11724087_x_at) / Fold change /veh FIZ1 (11724087_x_at) / RFU OASL (11726364_x_at) / Fold change /veh OASL (11726364_x_at) / RFU SOX15 (11748057_x_at) / Fold change /veh SOX15 (11748057_x_at) / RFU CD79A (11719716_a_at) / Fold change /veh CD79A (11719716_a_at) / RFU HIST1H1D (11736915_at) / Fold change /veh HIST1H1D (11736915_at) / RFU CASKIN2 (11723855_a_at) / Fold change /veh CASKIN2 (11723855_a_at) / RFU LOC730098 (11760151_x_at) / Fold change /veh LOC730098 (11760151_x_at) / RFU OR4N2 (11742367_at) / Fold change /veh OR4N2 (11742367_at) / RFU PRRT2 (11749266_a_at) / Fold change /veh PRRT2 (11749266_a_at) / RFU SNX32 (11753110_a_at) / Fold change /veh SNX32 (11753110_a_at) / RFU CDHR5 (11726645_a_at) / Fold change /veh CDHR5 (11726645_a_at) / RFU RCAN1 (11760418_a_at) / Fold change /veh RCAN1 (11760418_a_at) / RFU FAM167A (11723789_a_at) / Fold change /veh FAM167A (11723789_a_at) / RFU FAM26E (11764081_at) / Fold change /veh FAM26E (11764081_at) / RFU ISYNA1 (11749810_s_at) / Fold change /veh ISYNA1 (11749810_s_at) / RFU ACY1 (11761880_at) / Fold change /veh ACY1 (11761880_at) / RFU 11764098_at / Fold change /veh 11764098_at / RFU SAMD14 (11745864_x_at) / Fold change /veh SAMD14 (11745864_x_at) / RFU NPB (11741838_a_at) / Fold change /veh NPB (11741838_a_at) / RFU TMPRSS6 (11731388_a_at) / Fold change /veh TMPRSS6 (11731388_a_at) / RFU KRTAP10-2 (11738614_at) / Fold change /veh KRTAP10-2 (11738614_at) / RFU ARHGAP8 /// PRR5-ARHGAP8 (11727945_x_at) / Fold change /veh ARHGAP8 /// PRR5-ARHGAP8 (11727945_x_at) / RFU KRTAP5-7 /// NADSYN1 (11734609_at) / Fold change /veh KRTAP5-7 /// NADSYN1 (11734609_at) / RFU RASL12 (11751679_a_at) / Fold change /veh RASL12 (11751679_a_at) / RFU CDKN2B (11736163_a_at) / Fold change /veh CDKN2B (11736163_a_at) / RFU PRF1 (11729649_at) / Fold change /veh PRF1 (11729649_at) / RFU, ZNF638 /// ZNF638-IT1 / Fold change vs veh, ZNF638 /// ZNF638-IT1 / RFU, PANK3 / Fold change vs veh, PANK3 / RFU, SH3YL1 / Fold change vs veh, SH3YL1 / RFU, ZEB2 / Fold change vs veh, ZEB2 / RFU, NRIP1 / Fold change vs veh, NRIP1 / RFU, PTTG1IP / Fold change vs veh, PTTG1IP / RFU, CAPN2 / Fold change vs veh, CAPN2 / RFU, MED14 / Fold change vs veh, MED14 / RFU, SNORA58 / Fold change vs veh, SNORA58 / RFU, C1orf63 / Fold change vs veh, C1orf63 / RFU, LRRFIP1 / Fold change vs veh, LRRFIP1 / RFU, NDUFAF7 / Fold change vs veh, NDUFAF7 / RFU, SLC12A2 / Fold change vs veh, SLC12A2 / RFU, IBTK / Fold change vs veh, IBTK / RFU, ESF1 / Fold change vs veh, ESF1 / Fold change vs veh, TMEM50B / RFU, TAOK1 / Fold change vs veh, TAOK1 / RFU, ACBD3 / Fold change vs veh, ACBD3 / RFU, TMA16 / Fold change vs veh, TMA16 / RFU, RWDD3 / Fold change vs veh, RWDD3 / RFU, BCAT1 / Fold change vs veh, BCAT1 / RFU, EDEM3 / Fold change vs veh, EDEM3 / RFU, TMEM33 / Fold change vs veh, TMEM33 / RFU, WDR75 / Fold change vs veh, WDR75 / RFU, AHCTF1 / Fold change vs veh, AHCTF1 / RFU, TFRC / Fold change vs veh, TFRC / RFU, ZDHHC17 / Fold change vs veh, ZDHHC17 / RFU, NOM1 / Fold change vs veh, NOM1 / RFU, ARL8B / Fold change vs veh, ARL8B / RFU, ZBTB11 / Fold change vs veh, ZBTB11 / RFU, TAMM41 / Fold change vs veh, TAMM41 / RFU, KIAA1704 /// LOC100996395 / Fold change vs veh, KIAA1704 /// LOC100996395 / RFU, ING1 / Fold change vs veh, ING1 / RFU, TRMT61B / Fold change vs veh, TRMT61B / RFU, FUBP3 / Fold change vs veh, FUBP3 / RFU, TP53 / Fold change vs veh, TP53 / RFU, TNKS2 / Fold change vs veh, TNKS2 / RFU, ZFP14 / Fold change vs veh, ZFP14 / RFU, ACTR2 / Fold change vs veh, ACTR2 / RFU, PPP3R1 / Fold change vs veh, PPP3R1 / RFU, PIK3R1 / Fold change vs veh, PIK3R1 / RFU, HNRNPA1 / Fold change vs veh, HNRNPA1 / RFU, RNF170 / Fold change vs veh, RNF170 / RFU, ZNF28 / Fold change vs veh, ZNF28 / RFU, RNGTT / Fold change vs veh, RNGTT / RFU, OGT / Fold change vs veh, OGT / RFU, BRD1 / Fold change vs veh, BRD1 / RFU, MARS / Fold change vs veh, MARS / RFU, ZNF655 / Fold change vs veh, ZNF655 / RFU, FAHD1 / Fold change vs veh, FAHD1 / RFU, BDP1 / Fold change vs veh, BDP1 / RFU, LRRCC1 / Fold change vs veh, LRRCC1 / RFU, ARID1A / Fold change vs veh, ARID1A / RFU, ZNF146 / Fold change vs veh, ZNF146 / RFU, ZNF330 / Fold change vs veh, ZNF330 / RFU, GPN3 / Fold change vs veh, GPN3 / RFU, C9orf123 / Fold change vs veh, C9orf123 / RFU, N4BP2L2 / Fold change vs veh, N4BP2L2 / RFU, ARFIP1 / Fold change vs veh, ARFIP1 / RFU, FAM179B / Fold change vs veh, FAM179B / RFU, BCL10 / Fold change vs veh, BCL10 / RFU, UHRF1BP1L / Fold change vs veh, UHRF1BP1L / RFU, BET1 / Fold change vs veh, BET1 / RFU, CNOT2 / Fold change vs veh, CNOT2 / RFU, ZNF268 / Fold change vs veh, ZNF268 / Fold change vs veh, ZNF507 / RFU, DGCR2 / Fold change vs veh, DGCR2 / RFU, WDSUB1 / Fold change vs veh, WDSUB1 / Fold change vs veh, HSP90B1 /// MIR3652 / RFU, ADSS / Fold change vs veh, ADSS / RFU, GK / Fold change vs veh, GK / RFU, ZNF148 / Fold change vs veh, ZNF148 / RFU, TAF9 / Fold change vs veh, TAF9 / RFU, SLC1A5 / Fold change vs veh, SLC1A5 / RFU, SLMO2 / Fold change vs veh, SLMO2 / RFU, ABCC4 / Fold change vs veh, ABCC4 / RFU, LOC101060439 /// RAP1B / Fold change vs veh, LOC101060439 /// RAP1B / RFU, RFX7 / Fold change vs veh, RFX7 / RFU, GTPBP10 / Fold change vs veh, GTPBP10 / RFU, CNEP1R1 / Fold change vs veh, CNEP1R1 / RFU, BIVM-ERCC5 /// ERCC5 / Fold change vs veh, BIVM-ERCC5 /// ERCC5 / RFU, ILF3 / Fold change vs veh, ILF3 / RFU 11762660_at / Fold change /veh 11762660_at / RFU VCAN (11757783_s_at) / Fold change /veh VCAN (11757783_s_at) / RFU DDX43 (11728927_at) / Fold change /veh DDX43 (11728927_at) / RFU KRT8 (11758188_x_at) / Fold change /veh KRT8 (11758188_x_at) / RFU NKD1 (11759106_at) / Fold change /veh NKD1 (11759106_at) / RFU SRD5A1 (11742802_a_at) / Fold change /veh SRD5A1 (11742802_a_at) / RFU TPSAB1 /// TPSB2 (11721975_s_at) / Fold change /veh TPSAB1 /// TPSB2 (11721975_s_at) / RFU GSTM3 (11746129_a_at) / Fold change /veh GSTM3 (11746129_a_at) / RFU IL23R (11737362_x_at) / Fold change /veh IL23R (11737362_x_at) / RFU TMEM51 (11727254_a_at) / Fold change /veh TMEM51 (11727254_a_at) / RFU PIWIL2 (11732686_x_at) / Fold change /veh PIWIL2 (11732686_x_at) / RFU ORM1 (11744905_x_at) / Fold change /veh ORM1 (11744905_x_at) / RFU CCDC152 (11743942_at) / Fold change /veh CCDC152 (11743942_at) / RFU ECM1 (11717891_a_at) / Fold change /veh ECM1 (11717891_a_at) / RFU IL23R (11748794_a_at) / Fold change /veh IL23R (11748794_a_at) / RFU TNFAIP8L3 (11732012_x_at) / Fold change /veh TNFAIP8L3 (11732012_x_at) / RFU MBOAT4 (11741988_at) / Fold change /veh MBOAT4 (11741988_at) / RFU 11764193_at / Fold change /veh 11764193_at / RFU TMEM53 (11763286_at) / Fold change /veh TMEM53 (11763286_at) / RFU MAGEB2 (11727129_at) / Fold change /veh MAGEB2 (11727129_at) / RFU TMEM200A (11744735_a_at) / Fold change /veh TMEM200A (11744735_a_at) / RFU CCDC152 (11751479_a_at) / Fold change /veh CCDC152 (11751479_a_at) / RFU FAM211A (11726209_a_at) / Fold change /veh FAM211A (11726209_a_at) / RFU RGS16 (11746705_a_at) / Fold change /veh RGS16 (11746705_a_at) / RFU VCAN (11755009_s_at) / Fold change /veh VCAN (11755009_s_at) / RFU RHOB (11743442_s_at) / Fold change /veh RHOB (11743442_s_at) / RFU RGS16 (11720943_a_at) / Fold change /veh RGS16 (11720943_a_at) / RFU RGS16 (11720944_at) / Fold change /veh RGS16 (11720944_at) / RFU, VPS4B / Fold change vs veh, VPS4B / RFU, CREB1 / Fold change vs veh, CREB1 / RFU, DNAJC13 / Fold change vs veh, DNAJC13 / RFU, GNAQ / Fold change vs veh, GNAQ / RFU, CDK5R1 / Fold change vs veh, CDK5R1 / RFU, ZRANB3 / Fold change vs veh, ZRANB3 / RFU, CUL4A / Fold change vs veh, CUL4A / RFU, CCNY / Fold change vs veh, CCNY / RFU, UFL1 / Fold change vs veh, UFL1 / RFU, COG3 / Fold change vs veh, COG3 / RFU, DIAPH2 / Fold change vs veh, DIAPH2 / RFU, SKA2 / Fold change vs veh, SKA2 / RFU, AFF3 / Fold change vs veh, AFF3 / RFU, LMF1 / Fold change vs veh, LMF1 / RFU, IPO11 / Fold change vs veh, IPO11 / RFU, DFFB / Fold change vs veh, DFFB / RFU, FOXP1 / Fold change vs veh, FOXP1 / RFU, CARD8 / Fold change vs veh, CARD8 / RFU, STRN3 / Fold change vs veh, STRN3 / RFU, ADK / Fold change vs veh, ADK / RFU, RASSF2 / Fold change vs veh, RASSF2 / RFU, WIPF1 / Fold change vs veh, WIPF1 / RFU, LARP1B / Fold change vs veh, LARP1B / RFU, RASA1 / Fold change vs veh, RASA1 / RFU, RB1 / Fold change vs veh, RB1 / RFU, PPFIA1 / Fold change vs veh, PPFIA1 / RFU, MAT2A / Fold change vs veh, MAT2A / RFU, CCT5 / Fold change vs veh, CCT5 / RFU, WDR92 / Fold change vs veh, WDR92 / RFU, CUX1 / Fold change vs veh, CUX1 / RFU, TTC7A / Fold change vs veh, TTC7A / RFU, TMEM135 / Fold change vs veh, TMEM135 / RFU, DEPTOR / Fold change vs veh, DEPTOR / RFU, CPM / Fold change vs veh, CPM / RFU, DNAJB6 / Fold change vs veh, DNAJB6 / RFU, CACNA2D3 / Fold change vs veh, CACNA2D3 / RFU, DTX4 / Fold change vs veh, DTX4 / RFU, TFCP2 / Fold change vs veh, TFCP2 / RFU, GMCL1 /// GMCL1P1 / Fold change vs veh, GMCL1 /// GMCL1P1 / RFU, AEBP2 / Fold change vs veh, AEBP2 / RFU, SNHG1 /// SNORD22 /// SNORD25 /// SNORD26 /// SNORD27 /// SNORD28 /// SNORD29 /// SNORD31 / Fold change vs veh, SNHG1 /// SNORD22 /// SNORD25 /// SNORD26 /// SNORD27 /// SNORD28 /// SNORD29 /// SNORD31 / Fold change (Aza/veh), C12orf56 (ProbeSet 11735607_a_at) / Fold change (ACY-1035/veh), C12orf56 (ProbeSet 11735607_a_at) / Fold change (Aza/veh), FGFR1OP (ProbeSet 11751329_s_at) / Fold change (ACY-1035/veh), FGFR1OP (ProbeSet 11751329_s_at) / Fold change (Aza/veh), VPS36 (ProbeSet 11739960_a_at) / Fold change (ACY-1035/veh), VPS36 (ProbeSet 11739960_a_at) / RFU SYPL1 (11715823_x_at) / Fold change /veh SYPL1 (11715823_x_at) / RFU IGFBP7 (11715501_s_at) / Fold change /veh IGFBP7 (11715501_s_at) / RFU REEP3 (11722064_at) / Fold change /veh REEP3 (11722064_at) / RFU IGLL1 (11728026_x_at) / Fold change /veh IGLL1 (11728026_x_at): dose or concentration left out as unconfirmed
Details: MV-4-11 cells, 48 hours

## Nc1ccc(-c2cccs2)cc1NC(=O)c1ccc2c(c1)cc(C1CC1)n2CCN1CCOCC1 [ACY-1035]
  Fold change /veh VCAN (11755009_s_at): 1.16
